Reference: paper PMC3794980, “Identification of Conserved and HLA Promiscuous DENV3 T-Cell Epitopes” (PLoS Neglected Tropical Diseases, 2013)
Where no end group is shown, it is not given here.

What was measured:
Assay in all cases: biochemical
Type in all cases: binding
DRB4*0101 = DRB4*0101 (Homo sapiens, UniProt P01903+P13762, G164S)
DRB3*0101 = DRB3*0101 (Homo sapiens, UniProt P01903+P79483)
DRB5*0101 = DRB5*0101 (Homo sapiens, UniProt P01903+Q30154)

Compound	IC50 (DRB4*0101) [µM]	IC50 (DRB3*0101) [µM]	IC50 (DRB5*0101) [µM]
LPWTSGATTETPTWN [Envelope 216-230]	11.6		
CC[C@H](C)[C@H](NC(=O)[C@@H](NC(=O)[C@@H]1CCCN1C(=O)[C@@H](N)CO)[C@@H](C)CC)C(=O)N[C@@H](CC(N)=O)C(=O)N[C@@H](CCCNC(=N)N)C(=O)N[C@@H](CCC(=O)O)C(=O)NCC(=O)N[C@@H](CCCCN)C(=O)N[C@H](C(=O)N[C@H](C(=O)NCC(=O)N[C@@H](CC(C)C)C(=O)N[C@@H](Cc1ccc(O)cc1)C(=O)NCC(=O)O)C(C)C)C(C)C [NS3 137-151]		9.58	1.68
CSCC[C@H](NC(=O)[C@@H](NC(=O)[C@H](CCC(N)=O)NC(=O)[C@H](Cc1ccccc1)NC(=O)[C@H](CC(N)=O)NC(=O)[C@H](CCCCN)NC(=O)[C@@H]1CCCN1C(=O)[C@H](CC(N)=O)NC(=O)[C@H](CCCCN)NC(=O)CNC(=O)[C@@H]1CCCN1C(=O)[C@@H](N)CCC(=O)O)[C@@H](C)O)C(=O)N1CCC[C@H]1C(=O)NCC(=O)N[C@H](C(=O)O)[C@@H](C)O [NS3 101-115]		4.12	1.08
CC(C)C[C@H](NC(=O)[C@H](CCCCN)NC(=O)[C@@H](NC(=O)[C@H](CCCCN)NC(=O)[C@H](CCC(N)=O)NC(=O)[C@H](Cc1ccc(O)cc1)NC(=O)[C@H](CCC(=O)O)NC(=O)[C@@H](N)[C@@H](C)O)[C@@H](C)O)C(=O)N[C@@H](CC(N)=O)C(=O)N[C@@H](CC(=O)O)C(=O)N[C@@H](Cc1c[nH]c2ccccc12)C(=O)N[C@@H](CC(=O)O)C(=O)N[C@@H](Cc1ccccc1)C(=O)N[C@H](C(=O)N[C@H](C(=O)O)C(C)C)C(C)C [NS3 393-407]		3.7	15.9
CC[C@H](C)[C@H](N)C(=O)N[C@@H](Cc1ccccc1)C(=O)N[C@@H](CCSC)C(=O)N[C@H](C(=O)N[C@@H](C)C(=O)N[C@H](C(=O)N1CCC[C@H]1C(=O)N1CCC[C@H]1C(=O)NCC(=O)N[C@H](C(=O)N[C@@H](C)C(=O)N[C@@H](CC(=O)O)C(=O)N[C@@H](C)C(=O)N[C@@H](Cc1ccccc1)C(=O)N1CCC[C@H]1C(=O)O)[C@@H](C)O)[C@@H](C)O)[C@@H](C)O [NS3 313-327]		9.44	13.9
CC[C@H](C)[C@H](NC(=O)CNC(=O)[C@H](CO)NC(=O)CNC(=O)[C@H](CS)NC(=O)[C@H](CCCCN)NC(=O)[C@H](CC(C)C)NC(=O)[C@H](CCC(=O)O)NC(=O)[C@H](CCCCN)NC(=O)CNC(=O)[C@H](CCCCN)NC(=O)[C@H](Cc1c[nH]c2ccccc12)NC(=O)[C@H](CC(N)=O)NC(=O)[C@@H](NC(=O)[C@@H](N)C(C)C)[C@@H](C)CC)C(=O)O [NS1 5-19]		6.3	15.8
CC[C@H](C)[C@H](NC(=O)[C@H](CCCCN)NC(=O)[C@H](CCCCN)NC(=O)[C@H](CCC(=O)O)NC(=O)[C@H](CC(C)C)NC(=O)[C@@H]1CCCN1C(=O)[C@H](Cc1c[nH]cn1)NC(=O)[C@@H]1CCCN1)C(=O)N[C@H](C(=O)N[C@@H](CCC(N)=O)C(=O)N[C@@H](Cc1c[nH]c2ccccc12)C(=O)N[C@@H](CC(C)C)C(=O)N[C@@H](CCC(=O)O)C(=O)N[C@H](C(=O)N[C@@H](CCCCN)C(=O)NCC(=O)N[C@H](C(=O)O)C(C)C)[C@@H](C)O)[C@@H](C)O [NS5 636-652]	3.83		
CC[C@H](C)[C@H](NC(=O)[C@@H]1CCCN1C(=O)CNC(=O)[C@H](C)NC(=O)[C@H](CC(C)C)NC(=O)[C@H](CO)NC(=O)[C@H](CCCCN)NC(=O)[C@@H]1CCCN1C(=O)[C@@H](NC(=O)[C@@H](NC(=O)[C@H](CCSC)NC(=O)[C@H](CC(=O)O)NC(=O)[C@H](CO)NC(=O)[C@H](CCC(=O)O)NC(=O)[C@@H](N)CC(C)C)[C@@H](C)CC)[C@@H](C)CC)C(=O)O [NS1 237-251]		2.71	14.8
CC[C@H](C)[C@H](NC(=O)[C@@H]1CCCN1C(=O)[C@H](CO)NC(=O)CNC(=O)[C@H](CO)NC(=O)[C@@H](NC(=O)CNC(=O)[C@@H]1CCCN1C(=O)[C@H](CCCCN)NC(=O)[C@H](Cc1ccccc1)NC(=O)[C@H](CC(=O)O)NC(=O)[C@H](CC(C)C)NC(=O)[C@H](C)NC(=O)[C@@H](NC(=O)[C@H](C)N)[C@@H](C)CC)[C@@H](C)O)C(=O)O [NS3 125-139]		9.22	4.35
CSCC[C@H](NC(=O)CNC(=O)CNC(=O)[C@H](Cc1c[nH]cn1)NC(=O)[C@H](CCCCN)NC(=O)[C@H](CCCNC(=N)N)NC(=O)[C@H](CCC(N)=O)NC(=O)[C@H](CC(C)C)NC(=O)[C@H](CCCNC(=N)N)NC(=O)[C@H](CCC(=O)O)NC(=O)[C@@H](N)CC(C)C)C(=O)N[C@@H](CC(C)C)C(=O)N[C@H](C(=O)N[C@@H](CCCNC(=N)N)C(=O)N[C@@H](CC(N)=O)C(=O)N1CCC[C@H]1C(=O)N[C@@H](CC(C)C)C(=O)O)C(C)C [NS5 193-209]		12	1.2
CC[C@H](C)[C@H](NC(=O)[C@@H](NC(=O)[C@H](Cc1ccccc1)NC(=O)[C@H](CO)NC(=O)[C@H](CO)NC(=O)[C@H](CC(N)=O)NC(=O)[C@H](CCC(N)=O)NC(=O)[C@@H](NC(=O)[C@H](CCC(=O)O)NC(=O)[C@H](C)NC(=O)[C@@H](NC(=O)[C@@H](NC(=O)[C@@H](NC(=O)[C@H](CCCCN)NC(=O)[C@H](C)N)[C@@H](C)CC)C(C)C)[C@@H](C)O)[C@@H](C)O)[C@@H](C)CC)C(=O)O [NS1 121-135]		1.24	9.46
CC(C)C[C@H](NC(=O)[C@H](CCCNC(=N)N)NC(=O)[C@H](CCCCN)NC(=O)CNC(=O)[C@H](CC(N)=O)NC(=O)[C@H](Cc1ccc(O)cc1)NC(=O)[C@@H](NC(=O)[C@H](CC(C)C)NC(=O)[C@@H](N)C(C)C)[C@@H](C)O)C(=O)N[C@@H](CCC(=O)O)C(=O)N1CCC[C@H]1C(=O)N[C@@H](CC(N)=O)C(=O)N[C@@H](Cc1c[nH]c2ccccc12)C(=O)N[C@@H](C)C(=O)N[C@@H](CO)C(=O)O [NS3 57-71]		5.43	3.76
CC[C@H](C)[C@H](NC(=O)[C@@H](NC(=O)[C@H](CCCCN)NC(=O)[C@@H](N)CCCCN)C(C)C)C(=O)N[C@@H](CCC(N)=O)C(=O)N[C@@H](CC(C)C)C(=O)N[C@@H](CO)C(=O)N[C@@H](CCCNC(=N)N)C(=O)N[C@@H](CCCCN)C(=O)N[C@H](C(=O)N[C@@H](Cc1ccccc1)C(=O)N[C@@H](CC(=O)O)C(=O)N[C@H](C(=O)N[C@@H](CCC(=O)O)C(=O)N[C@@H](Cc1ccc(O)cc1)C(=O)O)[C@@H](C)O)[C@@H](C)O [NS3 381-395]		0.399	5.72
CC(C)[C@H](NC(=O)[C@H](CCC(=O)O)NC(=O)[C@H](Cc1ccc(O)cc1)NC(=O)[C@H](CO)NC(=O)CNC(=O)[C@H](Cc1c[nH]cn1)NC(=O)[C@H](Cc1ccc(O)cc1)NC(=O)[C@H](C)NC(=O)[C@H](Cc1c[nH]c2ccccc12)NC(=O)[C@@H](NC(=O)[C@H](CCCCN)NC(=O)[C@H](Cc1ccc(O)cc1)NC(=O)[C@@H]1CCCN1C(=O)[C@H](CC(N)=O)NC(=O)[C@H](CCC(=O)O)NC(=O)[C@@H](N)CC(=O)O)[C@@H](C)O)C(=O)N[C@@H](CCCCN)C(=O)O [NS5 295-311]		0.98	5.29
CC[C@H](C)[C@H](NC(=O)[C@H](CC(=O)O)NC(=O)[C@@H](N)[C@@H](C)O)C(=O)N[C@@H](CO)C(=O)N[C@@H](CCC(=O)O)C(=O)N[C@@H](CCSC)C(=O)NCC(=O)N[C@@H](C)C(=O)N[C@@H](CC(N)=O)C(=O)N[C@@H](Cc1ccccc1)C(=O)N[C@@H](CCCCN)C(=O)N[C@@H](C)C(=O)N[C@@H](CC(=O)O)C(=O)N[C@@H](CCCNC(=N)N)C(=O)N[C@H](C(=O)O)C(C)C [NS3 409-423]		0.168	0.05
CC(C)C[C@H](NC(=O)CNC(=O)[C@H](CCC(=O)O)NC(=O)CNC(=O)[C@H](CCC(=O)O)NC(=O)[C@@H](NC(=O)CNC(=O)[C@H](CO)NC(=O)[C@H](Cc1ccc(O)cc1)NC(=O)[C@H](CO)NC(=O)[C@H](CC(N)=O)NC(=O)[C@H](CCC(=O)O)NC(=O)[C@H](CCCNC(=N)N)NC(=O)[C@H](CO)NC(=O)[C@H](Cc1ccccc1)NC(=O)[C@H](Cc1c[nH]c2ccccc12)NC(=O)[C@@H](N)Cc1c[nH]cn1)C(C)C)C(=O)O [NS5 495-511]		1.16	0.723
CC[C@H](C)[C@H](N)C(=O)N[C@@H](CCCNC(=N)N)C(=O)N[C@@H](Cc1ccc(O)cc1)C(=O)N[C@@H](CCC(N)=O)C(=O)N[C@H](C(=O)N[C@H](C(=O)N[C@@H](C)C(=O)N[C@H](C(=O)N[C@@H](CCCCN)C(=O)N[C@@H](CO)C(=O)N[C@@H](CCC(=O)O)C(=O)N[C@@H](Cc1c[nH]cn1)C(=O)N[C@H](C(=O)NCC(=O)N[C@@H](CCCNC(=N)N)C(=O)O)[C@@H](C)O)[C@@H](C)O)[C@@H](C)O)[C@@H](C)O [NS3 241-255]		12.8	0.017
CC[C@H](C)[C@H](NC(=O)[C@H](CC(C)C)NC(=O)[C@H](CCC(=O)O)NC(=O)[C@H](Cc1c[nH]cn1)NC(=O)[C@H](Cc1ccccc1)NC(=O)[C@H](Cc1c[nH]cn1)NC(=O)[C@H](Cc1c[nH]cn1)NC(=O)[C@H](CO)NC(=O)[C@H](CS)NC(=O)[C@H](Cc1ccccc1)NC(=O)[C@@H]1CCCN1C(=O)[C@@H](NC(=O)[C@H](CCC(N)=O)NC(=O)[C@H](CCC(N)=O)NC(=O)[C@H](Cc1c[nH]c2ccccc12)NC(=O)[C@@H](N)CC(=O)O)C(C)C)C(=O)N[C@@H](CCSC)C(=O)O [NS5 702-718]		4.74	3.22
CC[C@H](C)[C@H](NC(=O)[C@H](CO)NC(=O)[C@@H]1CCCN1C(=O)[C@@H](NC(=O)[C@H](Cc1ccccc1)NC(=O)[C@H](Cc1c[nH]c2ccccc12)NC(=O)[C@@H](NC(=O)[C@@H](NC(=O)[C@H](CCCCN)NC(=O)CNC(=O)[C@H](C)NC(=O)[C@H](Cc1ccccc1)NC(=O)[C@H](CC(=O)O)NC(=O)[C@@H](N)[C@@H](C)O)[C@@H](C)O)C(C)C)C(C)C)C(=O)N[C@@H](CCCCN)C(=O)O [NS3 353-367]		15.7	1.22
CC[C@H](C)[C@H](NC(=O)[C@H](CCCCN)NC(=O)[C@H](CCCCN)NC(=O)[C@H](CCC(=O)O)NC(=O)[C@H](CC(C)C)NC(=O)[C@@H]1CCCN1C(=O)[C@H](Cc1c[nH]cn1)NC(=O)[C@@H]1CCCN1C(=O)[C@H](CC(N)=O)NC(=O)[C@H](CCC(=O)O)NC(=O)[C@H](CC(C)C)NC(=O)[C@H](CC(=O)O)NC(=O)[C@H](C)NC(=O)[C@@H](N)CCCCN)C(=O)N[C@H](C(=O)N[C@@H](CCC(N)=O)C(=O)N[C@@H](Cc1c[nH]c2ccccc12)C(=O)O)[C@@H](C)O [NS5 630-646]		13.7	15.5
